Among the data in the Deep4Chem optical property database are absorption maximum values, retold here.

The nature of the data set: solvent given as SMILES.

For `O=C1NC(=O)/C(=C\c2ccccc2O)S1`, the absorption maximum came out at 347 nm (in C1CCCCC1); 350 nm (in C1COCCO1); 348 nm (in CC#N); 353 nm (in CN(C)C=O); 352 nm (in CO); 351 nm (in O). The absorption maximum amounted to 364 nm (in OCC(O)CO) and 360 nm (in OCCO).
Regarding `CCN(CC)c1ccc2cc(/C=C/c3cccc[n+]3CCCS(=O)(=O)[O-])c(=O)oc2c1`, the absorption maximum (in C1CCOC1) stood at 513 nm; the absorption maximum (in CC#N) is given as 486 nm; the absorption maximum (in CC(C)=O) is 530 nm; the absorption maximum (in CS(C)=O) was found to be 494 nm; the absorption maximum (in Cc1ccccc1) amounted to 487 nm; the absorption maximum (in O) is listed as 481 nm. For the same compound, the absorption maximum (in OCC(O)CO) came to 496 nm.
For `Clc1ccc(-c2nc(-c3ccccc3)c(N(c3ccccc3)c3ccccc3)s2)cc1`, the absorption maximum (in ClC(Cl)Cl) is listed as 371 nm.
On to `CC(=O)Nc1ccc(S(=O)(=O)O)c(/N=N/c2c(O)c3ccccc3n(C)c2=O)c1`, for which the absorption maximum by setting is: (in C1CCOC1) 435 nm; (in CC(C)=O) 425 nm; (in CCOC(C)=O) 434 nm; (in CO) 423 nm; (in CS(C)=O) 428 nm; (in Cc1ccccc1) 437 nm. This compound returned an absorption maximum (in ClCCl) of 435 nm and an absorption maximum (in O) of 417 nm.
In the case of `CC(C)c1cccc(C(C)C)c1N1C(=O)c2cccc3c(Oc4ccc(Cl)cc4)ccc(c23)C1=O`, under “in ClCCl”, the absorption maximum was found to be 360 nm.
On to `c1ccc(N(c2ccccc2)c2ccc(-c3ccc(-c4ccc(-c5ccc(-c6ccc(N(c7ccccc7)c7ccccc7)cc6)s5)c5nsnc45)s3)cc2)cc1`, for which the absorption maximum (in ClC(Cl)Cl) is given as 530 nm.
Consider `CCCCCCN1C(=O)c2cccc3c(-c4ccc(-c5cc(-c6ccccc6)n(-c6ccccc6)n5)s4)ccc(c23)C1=O`, for which, for the setting “in ClCCl”, the absorption maximum was 400 nm.
Compound `CCCCCCN1C(=O)c2cccc3c(-c4ccc(OC)s4)ccc(c23)C1=O` registered an absorption maximum (in ClC(Cl)Cl) of 407 nm.
In the case of `O=C(O)c1c2ccccc2nc2ccccc12`, the absorption maximum reads like this: (in C1CCOC1) 360 nm; (in C1COCCO1) 362 nm; (in CC#N) 354 nm; (in CCCCCO) 370 nm; (in CCCCO) 370 nm; (in CCCO) 368 nm. The absorption maximum (in CCO) came out at 369 nm; the absorption maximum (in CO) came to 356 nm; the absorption maximum (in COCCOC) turned out to be 360 nm; the absorption maximum (in ClC(Cl)Cl) is on record as 362 nm; the absorption maximum (in ClCCl) was 362 nm; the absorption maximum (in OCCO) was found to be 356 nm.
Regarding `COc1ccc(-n2c3ccccc3c3cc(/C=C/C(=C(C#N)C#N)c4ccccc4)ccc32)cc1`, the absorption maximum runs as follows: (in C1CCOC1) 448 nm; (in CC#N) 444 nm; (in CC(C)=O) 445 nm; (in CCOC(C)=O) 443 nm; (in CO) 449 nm; (in CS(C)=O) 454 nm. For the same compound, the absorption maximum turned out to be 450 nm (in Cc1ccccc1) and 459 nm (in ClC(Cl)Cl).
As for `O=C(c1ccc(N2c3ccccc3Oc3ccccc32)cc1)c1ccc2sc3ccccc3c2c1`, under “in C1CCOC1”, the absorption maximum was 312 nm.
On to `COC(=O)c1ccc(/C=C2\C=C(c3ccccc3)OC2=O)cc1`, for which the absorption maximum (in C1COCCO1) came out at 401 nm.
The compound `COc1cc2c(cc1-c1ccc(C)cc1)Cc1c3c(c4c(c1-2)-c1cc(OC)c(-c2ccc(C)cc2)cc1C4)C(=O)N(CCC(C)C)C3=O` returned an absorption maximum (in C1CCOC1) of 411 nm.
Under “in ClC(Cl)Cl”, `Cc1ccc(/C2=c3\cc/c(o3)=C(\c3ccc(C)cc3)c3ccc([nH]3)-c3ccc4n3[P-](=O)(=O)[N+]3=C(C=CC3=C4c3ccco3)c3ccc2[nH]3)cc1` returned an absorption maximum of 744 nm.
For the setting “in Cc1ccccc1”, `COc1ccc(N2c3ccc4ccccc4c3-c3c4ccccc4cc[n+]3[B-]2(c2ccccc2)c2ccccc2)cc1` showed an absorption maximum of 520 nm.
Where the note is “in CC#N”, `N#Cc1nn(-c2ccccc2)nc1N1CCCC1` gave an absorption maximum of 340 nm.
`FC(F)(F)c1ccc(-c2c3cccc4c5cccc6c(-c7ccc(C(F)(F)F)cc7)c7cccc8c9cccc2c9c(c34)c(c65)c78)cc1` displayed an absorption maximum (in Cc1ccccc1) of 683 nm.
Under “in ClC(Cl)Cl”, `CCCCN1C(=O)c2cc(Br)c3c4c(Br)cc5c6c(cc(Br)c(c7c(Br)cc(c2c37)C1=O)c64)C(=O)N(CCCC)C5=O` showed an absorption maximum of 532 nm.
In the case of `CCC12C(=C3C(=C4c5ccc(-c6ccc(C(C)=O)s6)cc5S(=O)(=O)C41CC)C(F)(F)C(F)(F)C3(F)F)c1ccc(-c3ccc(C(C)=O)s3)cc1S2(=O)=O` (configuration not stated), the absorption maximum (in C1COCCO1) turned out to be 485 nm.
For the setting “in ClC(Cl)Cl”, `CCOC(=O)c1ccc(/C=C/C2=[N+]3C(=C(c4ccccc4)c4ccc(/C=C/c5ccc(C(=O)OCC)o5)n4[B-]3(F)F)C=C2)o1` gave an absorption maximum of 671 nm.
As to `Cc1cc(-c2nc3c4ccccc4c4ccccc4c3n2-c2ccc(C(C)(C)C)cc2)ccc1-c1ccc(-c2c(-c3ccccc3)nc3ccccn23)cc1`, the absorption maximum (in ClCCl) is 364 nm.
As to `Cc1ccc(/C=C(\c2ccccc2)c2nc3ccccc3o2)cc1`, the absorption maximum is 325 nm (in C1CCCCC1) and 330 nm (in CO).
With `CCCCn1c(=O)c2cc3ccc4cccc5ccc(c2c1=O)c3c45`, for the setting “in ClC(Cl)Cl”, the absorption maximum is given as 427 nm.
Regarding `O=C1NC(=O)c2ccc(N3CCOCC3)c3cccc1c23`, for the setting “in ClC(Cl)Cl”, the absorption maximum is on record as 394 nm.
`CCCC1=Cc2nc1ccc1[nH]c(cc1CCO)c1nc(ccc3[nH]c2cc3CCC)C(CCC)=C1` displayed an absorption maximum (in Cc1ccccc1) of 637 nm.
Consider `CCCC(=O)c1c2c(c(C(=O)CCC)c3c1OC(CC(=O)OC)(C(=O)OC)O3)OCO2`, for which the absorption maximum stood at 423 nm (in CC#N); 413 nm (in CCCCCC); 428 nm (in CCO); 428 nm (in CO); 425 nm (in ClCCl).
`Cc1cnc(NC(=O)C2=C(O)c3ccccc3S(=O)(=O)N2C)s1`: the absorption maximum is 342 nm (in C1COCCO1); 340 nm (in CC#N); 350 nm (in CCCCO); 350 nm (in CCCO); 349 nm (in CCO); 343 nm (in CCOC(C)=O). The compound further yielded an absorption maximum (in CO) of 346 nm.
In the case of `COC(=O)c1ccc(/C=C2\C=C(c3ccc(OC)c(OC)c3)NC2=O)cc1`, under “in C1COCCO1”, the absorption maximum worked out at 454 nm.
Turning to `Cc1cccc(C)c1Nc1ccc(/C=C/c2cccnc2)cc1`, the absorption maximum came to 351 nm (in CC#N) and 346 nm (in CCCCCC).
`Cc1ccsc1-c1ccc(-c2ccc(-c3sccc3C)s2)s1` displayed an absorption maximum (in CCCCCCCCCCCCCC) of 382 nm.
Compound `CCOC(=O)/N=c1/oc2cc(OC)ccc2cc1C#N` came in with an absorption maximum (in ClCCl) of 370 nm.
For the compound `C#CCN1C(=O)/C(=C/c2cc(OC(C)C)ccc2OC(C)C)N=C1C`, the absorption maximum is, setting by setting: (in C1COCCO1) 396 nm; (in CC#N) 395 nm; (in CC(C)=O) 394 nm; (in CCCCCC) 392 nm; (in CCCCO) 400 nm; (in CCCO) 400 nm. Besides, the absorption maximum (in CCO) is recorded as 399 nm; the absorption maximum (in CCOC(C)=O) is 393 nm; the absorption maximum (in CN(C)C=O) was determined as 399 nm; the absorption maximum (in CO) was found to be 398 nm; the absorption maximum (in CS(C)=O) was 401 nm.
